Assay [1] has as its target T1, PSA (Homo sapiens, UniProt P07288).
T1 construct: Using PSA as purified from human urine or seminal plasma; from tissue; host or cells: human urine or seminal plasma
The assay can be described thus: PSA activity assay with Pro-Phe-Arg-MCA substrate, residual activity in coexistence of peptides. It counts as biochemical. The conditions noted are these: enzyme added PSA, 100% without any Peptide. As to the method:
Then, investigation was conducted into whether or not these peptides act to inhibit the PSA activity.
While using […] of 100 μM or 10 μM Pro-Phe-Arg-MCA (supplied by Peptide Research. Institute of Japan) as a substrate, 0.1 ml of 100 μM of each of Peptides 1 to 5 was mixed with the substrate and 0.7 ml of 0.1M Tris-hydrochloride buffer (pH 8.0) to allow the reaction to proceed at 37° C. for 5 min, followed by addition of 0.1 ml of 0.12 mg/ml PSA solution. The reaction solution was subjected to time-course measurement of fluorescence intensity (Ex380 nm, Em460nm) at 37° C. for 3 min, and the inhibitory activity value was determined from a slope of the straight line. […] In the above experiments, Pro-Phe-Arg-MCA, Peptides 1 to 5 PSA and kallikrein were used after being dissolved in 0.1M Tris-hydrochloride buffer (pH 8.0).
These findings are in good agreement with the fact that PSA a protease belonging to the kallikrein family .

In assay [2] the target is T1, PSA. The assay can be described thus: Degradation of r-IGFBP3 by PSA, SDS electrophoresis and Western blotting with densitometry. It counts as biochemical. As to conditions: relative to r-IGFBP3 alone (100.0); r-IGFBP3 + PSA 50.0; 4 nmol Peptide 4. As to the method:
And PSA degrades r-IGFB3 into fragments, whereby its degradation process can be confirmed by means of SDS-electrophoresis and Western blotting.
A specimen was prepared by dissolving 0.57 μg of PSA and 2.0 μg of r-IGFBP3 (manufactured by Upstate Co. of USA) in 0.1M Tris-hydrochloride buffer (pH 8.0), followed by reaction at 37° C. for 16 hrs, while another specimen was prepared by dissolving 0.57 μg of PSA, 2.0 μg of r-TGFBP3 (manufactured by Upstate Co. of USA) and 4 nmol of Peptide 4 in 0.1M Tris-hydrochloride buffer (pH 8.0), followed by reaction at 37° C. for 16 hrs. Each of the specimens was subjected to a 4 to 20% gradient gel to conduct SDS electrophoresis under non-reduction in the conditions described by Laemmli et al. (Iqature, 227: 680-685, 1970). After electrophoresis, separated proteins were transferred to a nitrocellulose membrane to carry out Western blotting using anti-IGFBP3 antibody (produced by Biogenesis Co. of USA) as a primary antibody and anti-rabbit antibody (produced by Promega Co. of USA) labeled with horseradish peroxidase (HRP) as a secondary antibody. The HRP activity was detected by chemiluminescence (Renaissance Western Blot Chemiluminescence Reagent, NEN™ produced by Life Science Products Co. of USA), and the protein bands as detected were quantitatively determined by use of a densitometer.

Where [3] appears, read: column A, Substrate:Peptide molar ratio 1:1.
[4] abbreviates: column B, Substrate:Peptide molar ratio 1:10.

No end group written: not given here.

T1 sequence (P07288 25-261): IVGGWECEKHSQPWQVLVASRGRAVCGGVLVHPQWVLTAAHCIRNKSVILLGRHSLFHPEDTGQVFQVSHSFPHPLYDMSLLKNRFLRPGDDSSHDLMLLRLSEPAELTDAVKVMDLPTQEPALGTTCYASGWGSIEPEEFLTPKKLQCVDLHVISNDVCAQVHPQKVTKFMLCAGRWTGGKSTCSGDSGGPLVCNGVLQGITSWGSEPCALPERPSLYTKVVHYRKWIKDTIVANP

Consider “PSKGRKRGFM [Peptide 5, Pro(226)-Ser-Lys-Gly-Arg-Lys-Arg-Gly-Phe-Met(235)]”, for which the “Residual activity rate (%) after addition of Peptides” value (“Residual activity rate (%)” below) on PSA [1] (setting [3]) stood at 75.1%; on PSA [1] (setting [4]) it was 84.8%.

On to “VNASAVSRLRAYLLP [Peptide 1, val(88)-Asn-Ala-Ser-Ala-Val-Ser-Arg-Leu-Arg-Ala-Tyr-Leu-Leu-Pro(102)]”, for which the entries for the “Residual activity rate (%)” value on PSA [1] (setting [3]) and at PSA [1] (setting [4]) were 107.4% and 100.7%, respectively.

Regarding “VSSTHRVSDPKF [Peptide 2, Val(127)-Ser-Ser-Thr-His-Arg-Val-Ser-Asp-Pro-Lys-Phe(138)]”, the “Residual activity rate (%)” value amounted to 87.5% on PSA [1] (setting [3]) and 104.8% on PSA [1] (setting [4]).

As for “LNHLKFLNVL [Peptide 3, Leu(194)-Asn-His-Leu-Lys-Phe-Leu-Asn-val-Leu(203)]”, the “Residual activity rate (%)” value at PSA [1] (setting [3]) was found to be 83.5%; at PSA [1] (setting [4]) it was 73.3%.

In the case of “GFYKKKQSR [Peptide 4, Gly(217)-Phe-Tyr-Lys-Lys-Lys-Gln-Ser-Arg(225)]”, the “Residual rate % of the 50 kDa band” value at PSA [2] came out at 65.1%. The “Residual activity rate (%)” value on PSA [1] (setting [3]) turned out to be 66.5%; at PSA [1] (setting [4]), 46.6%.

The values above are taken from US6284734A, “Inhibitors against prostate-specific antigen” (JCR Pharmaceuticals Co., Ltd., priority 1997, dated 2001).
